From patent US5521315A, “Olefin substituted long chain compounds” (priority 1993, dated 1996)

Columns and labels:
[1] = system: CMV promoter activity in transformed (adenovirus) cells; experiment: CMV promoter assay (gene transcription and translation; cytotoxicity in transformed cells); type: cell-based
Source text: (§1) FIG. 18 illustrates data regarding proliferative activity of various inventive compounds for inducting CMV promoter activity. The CMV promoter assay measures gene transcription and translation activity wherein any active compounds will have cytotoxic activity to inhibit cellular protein synthesis machinery in transformed (adenovirus) cells.
as §1, with “This example” for “FIG. 18”

mast cell degranulation = experiment: Serotonin release assay (inhibition of mast cell degranulation); type: cell-based; conditions: for RELEASE-SPONT: average corrected for spontaneous release; for AVERAGE % RELEASE: average of duplicates; for % INHIBITION (serotonin release): Table 3
Source text: A serotonin release assay is utilized to study the utility of the inventive compounds for treatment of asthma and allergy. […] This assay measures mast cell degranulation, which is an early phase reaction to allergen challenge. Mast cells grown in tissue culture are first loaded with ^3 H serotonin, which is incorporated into the granules in the cells. The mast cells are sensitized with antigen specific monoclonal IgE, and then triggered to degranulate with the specific antigen (dinitorphenolbound to BSA (DNP)). When the cells degranulate, ^3 H Serotonin is released into the medium, and can be measured directly. The ability of the inventive compounds to inhibit the degranulation response is determined by the decrease in ^3 H Serotonin released in the presence of drug and is represented as % INHIBITION.
Specifically, the serotonin release assay seeds 2×10^5 cells in 0.5 ml medium in duplicate for spontaneous release, IgE+DNP, IgE+DNP+EtOH (vehicle control), and inventive compounds. […] The cells are incubated for 18 hours at 37° C. in 5% CO2, washed twice with 0.5 ml Isotonic Buffer (25 mM disodium PIPES pH 7.1,100 mM NaCl, 5 mM KCl, 5 mM glucose, 0.4 mM MgCl2, 1mM CaCl2, 0.1% BSA), and sterile filtered. 250 μl Isotonic Buffer is added per well and the plates are equilibrated in an incubator for about 10 min. Drug is added and cells are activated with 40 ng/ml DNP-BSA (1 mg/ml Diluted 1:200 in Isotonic Buffer) for 45 minutes using 2 μl/250 μl. Spontaneous release is determined in incubated cells with 250 μl Isotonic Buffer for 45 minutes and the reaction is stopped by removing supernatant and centrifuging at ~4000 rpm in microfuge for 15 seconds to remove any detached cells. Released radiolableled serotonin is counted. To determine amount of ^3 H-serotonin incorporated into the cells, (a) remove Isotonic Buffer and lyse cells by adding 250 μl 1% Triton-X100 in PBS, (b) add to 5 ml scintillation fluid, (c) wash 2× with Triton/PBS, and (d) add washes to scintillation tube. Percent serotonin release is calculated by dividing the amount of released serotonin by the sum of incorporated plus released serotonin and correcting for spontaneous released serotonin. Compound inhibition is calculated by dividing the percent serotonin release in the presence of a compound by the percent serotonin release in the absence of the compound.
This assay is described above and provides an in vitro model for an allergy and asthma therapeutic product.

Compound | IC50 [1] | RELEASE-SPONT (mast cell degranulation; 25 uM, Table 4) | AVERAGE % RELEASE (mast cell degranulation; 25 uM, Table 4) | activity in serotonin release assay (mast cell degranulation; 50 μM) | RELEASE-SPONT (mast cell degranulation; 50 μM, Table 4) | AVERAGE % RELEASE (mast cell degranulation; 50 μM, Table 4) | inhibition at 25 µM (mast cell degranulation; Mast cell, 25 uM, Table 4) | inhibition at 50 µM (mast cell degranulation; Mast cell, 50 μM, Table 4) | % INHIBITION (serotonin release) (mast cell degranulation; 50 μM)
C=CCCCCCCCN1C(=O)CCCC1=O [CT1604, N-(8-nonenyl)glutarimide] | 100 µM | 4.85% | 21.41% | appear to be quite potent | 0.41% | 16.96% | 39.5% | 94.9% | 
CC(C)=CCC/C(C)=C/Cn1c(=O)c2c(ncn2C)n(C)c1=O [CT2545, 1-(Geranyl)-3,7-dimethylxanthine] | 75 µM |  |  |  | 2.49% | 19.05% |  | 68.9% | 
C=CCCCCn1c(=O)c2[nH]cnc2n(C)c1=O [CT1438, 1-(5-hexenyl)-3-methylxanthine] | > 500 µM |  |  |  |  |  |  |  | 
C=CCCCCCCCCCN1C(=O)CCN(C)C1=O [CT1819, 3-(10-undecenyl)-1-methyldihydrouracil] |  |  |  | just not having much of an effect at 50 μM | 9.42% | 25.98% |  | -17.5% | no inhibi-
C=CCCn1c(=O)c2c(ncn2C)n(C)c1=O [CT2503, 1-(3-butenyl)-3,7-dimethylxanthine] | > 500 µM |  |  |  | 4.87% | 21.43% |  | 39.2% | 
C=CCCCCn1c(=O)n(C)c(=O)c2ccccc21 [CT1203, 1-(5-hexenyl)-3-methylbenzoyleneurea] |  |  |  | appear to be quite potent | -1.12% | 15.43% |  | 114% | 
CC/C=C\CCCCCn1c(=O)c(C)cn(C)c1=O [CT1916, 3-(6-cis-nonenyl)-1-methylthymine] | 250 µM |  |  | appears to decrease the activity | 6.02% | 22.58% |  | 24.9% | 
CC(C)=CCC[C@@H](C)CCn1c(=O)c2c(ncn2C)n(C)c1=O [CT1596R, 1-(3-(R)-methyl-7-methyloct-6-enyl)-3,7-dimethylxanthine] | > 500 µM |  |  |  | 6.59% | 23.14% |  | 17.9% | 
C=CCCCCCCCn1c(=O)c2c(ncn2C)n(C)c1=O [CT1550, 1-(8-nonenyl)-3,7-dimethylxanthine] | 75 µM |  |  |  | 6.94% | 23.50% |  | 13.4% | 
C=CCCCCN1C(=O)CCN(C)C1=O [CT1812, 3-(5-hexenyl)-1-methyldihydrouracil] | > 100 µM |  |  | just not having much of an effect at 50 μM | 8.27% | 24.83% |  | -3.14% | no inhibi-
C=CCCCCCCCn1c(=O)c2[nH]cnc2n(C)c1=O [CT1405, 1-(8-nonenyl)-3-methylxanthine] | 100 µM |  |  |  | 5.13% | 21.69% |  | 36% | 
C=CC(O)CCCCCn1c(=O)c2c(ncn2C)n(C)c1=O (centres unmarked) [CT2508, 1-(6-hydroxy-7-octenyl)-3,7-dimethylxanthine] | > 500 µM |  |  |  | 2.89% | 19.44% |  | 64% | 
C=CCCCCn1c(=O)c(C)cn(C)c1=O [CT1905, 3-(5-hexenyl)-1-methylthymine] | > 500 µM |  |  |  | 4.94% | 21.49% |  | 38.5% | 
CC/C=C\CCCCCCn1c(=O)c2c(ncn2C)n(C)c1=O [CT2560, 1-(7-cis-decenyl)-3,7-dimethylxanthine] |  |  |  | appears to increase the activity | 2.96% | 19.51% |  | 63.1% | 
C=CCCCCCCCCCn1c(=O)ccn(C)c1=O [CT1823, 3-(10-undecenyl)1-methyluracil] |  |  |  |  | 4.72% | 21.28% |  | 41.1% | 
C=CCCCCCCCn1c(=O)c(C)cn(C)c1=O [CT1917, 3-(8-nonenyl)-1-methylthymine] | 75 µM |  |  |  | 3.75% | 20.31% |  | 53.2% | 
